Test system: patients with treatment-resistant depression (TRD)
Experiment: Adverse events (Example 7)
Format: in vivo, human
Settings: double-blind
Method: Adverse events were monitored throughout the study. Other safety assessments (i.e., laboratory tests, vital signs, physical examination) were performed at pre-specified time points. Vital signs, the Clinician Administered Dissociative States Scale (CADSS; Bremner, “Measurement of dissociative states with the clinician-administered dissociative states scale (CADSS)”, J. Traumatic Stress, 1998, 11(1):125-136), and the 4-item positive symptom subscale from the Brief Psychiatric Rating Scale (BPRS; Overall, “The Brief Psychiatric Rating Scale. Psychological Reports”, 1962, 10:799-812) were assessed pre-dose, at 40 minutes, and 2 hours post-dose.
Safety data were analyzed in Period 1, Period 2, double-blind, and open-label data sets, for all subjects receiving at least 1 dose of study medication.

Structure (SMILES): CN[C@]1(c2ccccc2Cl)CCCCC1=O [esketamine, (S)-2-(2-chlorophenyl)-2-(methylamino)cyclohexanone]
- Dissociation, number of participants (esketamine 28 mg, N = 19): 0
- Dissociative disorder, % of participants (esketamine 28 mg, N = 19): (11) %
- Dissociative disorder, number of participants (esketamine 28 mg, N = 19): 2
- Dizziness, % of participants (esketamine 28 mg, N = 19): (21) %
- Dizziness, number of participants (esketamine 28 mg, N = 19): 4
- Dysgeusia, % of participants (esketamine 28 mg, N = 19): (11) %
- Dysgeusia, number of participants (esketamine 28 mg, N = 19): 2
- Feeling abnormal, % of participants (esketamine 28 mg, N = 19): (11) %
- Feeling abnormal, number of participants (esketamine 28 mg, N = 19): 2
- Headache, % of participants (esketamine 28 mg, N = 19): (32) %
- Headache, number of participants (esketamine 28 mg, N = 19): 6
- Hypersomnia, % of participants (esketamine 28 mg, N = 19): (11) %
- Hypersomnia, number of participants (esketamine 28 mg, N = 19): 2
- Hypertension, number of participants (esketamine 28 mg, N = 19): 0
- Hypoesthesia oral, % of participants (esketamine 28 mg, N = 19): (5) %
- Hypoesthesia oral, number of participants (esketamine 28 mg, N = 19): 1
- Insomnia, number of participants (esketamine 28 mg, N = 19): 0
- Nasal discomfort, number of participants (esketamine 28 mg, N = 19): 0
- Nausea, % of participants (esketamine 28 mg, N = 19): (11) %
- Nausea, number of participants (esketamine 28 mg, N = 19): 2
- Oropharyngeal pain, number of participants (esketamine 28 mg, N = 19): 0
- Polyuria, number of participants (esketamine 28 mg, N = 19): 0
- Sedation, % of participants (esketamine 28 mg, N = 19): (5) %
- Sedation, number of participants (esketamine 28 mg, N = 19): 1
- Throat irritation, % of participants (esketamine 28 mg, N = 19): (5) %
- Throat irritation, number of participants (esketamine 28 mg, N = 19): 1
- Total with events, % of participants (esketamine 28 mg, N = 19): (58) %
- Total with events, number of participants (esketamine 28 mg, N = 19): 11
- Tunnel vision, number of participants (esketamine 28 mg, N = 19): 0
- Vertigo, % of participants (esketamine 28 mg, N = 19): (11) %
- Vertigo, number of participants (esketamine 28 mg, N = 19): 2
- Vision blurred, number of participants (esketamine 28 mg, N = 19): 0
- Dissociation, % of participants (esketamine 56 mg, N = 20): (35) %
- Dissociation, number of participants (esketamine 56 mg, N = 20): 7
- Dissociative disorder, % of participants (esketamine 56 mg, N = 20): (5) %
- Dissociative disorder, number of participants (esketamine 56 mg, N = 20): 1
- Dizziness, % of participants (esketamine 56 mg, N = 20): (40) %
- Dizziness, number of participants (esketamine 56 mg, N = 20): 8
- Dysgeusia, % of participants (esketamine 56 mg, N = 20): (15) %
- Dysgeusia, number of participants (esketamine 56 mg, N = 20): 3
- Feeling abnormal, % of participants (esketamine 56 mg, N = 20): (5) %
- Feeling abnormal, number of participants (esketamine 56 mg, N = 20): 1
- Headache, % of participants (esketamine 56 mg, N = 20): (15) %
- Headache, number of participants (esketamine 56 mg, N = 20): 3
- Hypersomnia, number of participants (esketamine 56 mg, N = 20): 0
- Hypertension, % of participants (esketamine 56 mg, N = 20): (10) %
- Hypertension, number of participants (esketamine 56 mg, N = 20): 2
- Hypoesthesia oral, % of participants (esketamine 56 mg, N = 20): (20) %
- Hypoesthesia oral, number of participants (esketamine 56 mg, N = 20): 4
- Insomnia, % of participants (esketamine 56 mg, N = 20): (10) %
- Insomnia, number of participants (esketamine 56 mg, N = 20): 2
- Nasal discomfort, % of participants (esketamine 56 mg, N = 20): (10) %
- Nasal discomfort, number of participants (esketamine 56 mg, N = 20): 2
- Nausea, % of participants (esketamine 56 mg, N = 20): (20) %
- Nausea, number of participants (esketamine 56 mg, N = 20): 4
- Oropharyngeal pain, % of participants (esketamine 56 mg, N = 20): (5) %
- Oropharyngeal pain, number of participants (esketamine 56 mg, N = 20): 1
- Polyuria, % of participants (esketamine 56 mg, N = 20): (10) %
- Polyuria, number of participants (esketamine 56 mg, N = 20): 2
- Sedation, % of participants (esketamine 56 mg, N = 20): (10) %
- Sedation, number of participants (esketamine 56 mg, N = 20): 2
- Throat irritation, number of participants (esketamine 56 mg, N = 20): 0
- Total with events, % of participants (esketamine 56 mg, N = 20): (80) %
- Total with events, number of participants (esketamine 56 mg, N = 20): 16
- Tunnel vision, number of participants (esketamine 56 mg, N = 20): 0
- Vertigo, % of participants (esketamine 56 mg, N = 20): (5) %
- Vertigo, number of participants (esketamine 56 mg, N = 20): 1
- Vision blurred, number of participants (esketamine 56 mg, N = 20): 0
- Dissociation, % of participants (esketamine 84 mg, N = 17): (24) %
- Dissociation, number of participants (esketamine 84 mg, N = 17): 4
- Dissociative disorder, % of participants (esketamine 84 mg, N = 17): (24) %
- Dissociative disorder, number of participants (esketamine 84 mg, N = 17): 4
- Dizziness, % of participants (esketamine 84 mg, N = 17): (47) %
- Dizziness, number of participants (esketamine 84 mg, N = 17): 8
- Dysgeusia, % of participants (esketamine 84 mg, N = 17): (29) %

Reference: US11980596B2 (priority 2017, dated 2024)
